# Laboratory results published in patent publication US20090270626A1, “STABLE BISTHIOL COMPOUNDS FOR RA[…] THERAPY” (Organix, Inc., priority 2008, published 2009).
# Counter-ions that a name gives are not always drawn.
# Test: Stability of the deprotected bisthiol measured by HPLC with UV and mass detection
# Format: physicochemical
# Details: room temperature
# Procedure: Stability of compound O-5648 (see Example 1, above) was measured by HPLC with UV and mass detection. The bisthiol free base was stable up to 100 hours at room temperature in methanol exposed to air.
# The bisthiol dihydrochloride salt was stable in MeOH up to 150 hours at room temperature.
# The solid bisthiol dihydrochloride salt exposed to air was stable for >170 hours at room temperature.
smiles,measurement,setting,value
"CCC(=O)C1C2CC[C@H](C[C@H]1c1ccc(F)cc1)N2CCCN(CCS)CC(=O)NCCS (stereo partly drawn) [O-5648, N-[2-(3′-N′-Propyl-(1″R)-3″α-(4-fluorophenyl)tropane-2″β-(1-propanoyl)-[(2-mercapto-ethyl)-amino]-(2-mercapto-ethyl-acetamide, dihydrochloride salt]",time stable (bisthiol dihydrochloride salt in MeOH),"bisthiol dihydrochloride salt, in MeOH",up to 150 hours
same,time stable (bisthiol free base in methanol),"bisthiol free base, in methanol exposed to air",up to 100 hours
same,time stable (solid bisthiol dihydrochloride salt),solid bisthiol dihydrochloride salt exposed to air,> 170 h
